The results in this text go back to patent EP0624315B1, “Diaryl(pyridinio and isoquinolinio) boron fungicidal agents” (AMERICAN CYANAMID COMPANY, priority 1993, dated 1994).

Assay [1] concerns Diabrotica undecimpunctata howardi, 3rd instar southern corn rootworm. Nature of the assay: Insecticide evaluation, southern corn rootworm soil test. The arrangement: key: 0 = no effect; 1 = 10-25% kill; 2 = 26-35% kill; 3 = 36-45% kill; 4 = 46-55% kill; 5 = 56-65% kill; 6 = 66-75% kill; 7 = 76-85% kill; 8 = 86-99% kill; 9 = 100% kill; - = No evaluation. In kind it is in vivo. The following applies: 50 kg/ha (1.25 mg active ingredient per jar), 6 days. As for the experimental part: (§1) The following tests show the efficacy of the compounds as insecticides and acaricides. The evaluations are conducted with solutions of test compounds dissolved or dispersed in 50/50 acetone/water mixtures. The test compound is technical material dissolved or dispersed in said acetone/water mixtures in sufficient amounts to provide the concentrations set forth in Table I below. All concentrations reported herein are in terms of active ingredient. All tests are conducted in a laboratory maintained at about 27 °C. The rating system employed is as follows:
One cc of fine talc is placed in a 30 mL wide-mouth screw-top glass jar. One mL of the appropriate acetone test solution is pipetted onto the talc so as to provide 1.25 mg of active ingredient per jar. The jars are set under a gentle air flow until the acetone is evaporated. The dried talc is loosened, 1 cc of millet seed is added to serve as food for the insects and 25 mL of moist soil is added to each jar. The jars are capped and the contents thoroughly mixed on a Vortex Mixer. Following this, ten 3rd instar rootworms are added to each jar and the jars are loosely capped to allow air exchange for the larvae. The treatments are held for 6 days before mortality counts are made. Missing larvae are presumed dead, since they decompose rapidly and can not be found. The concentration used in this test corresponds to approximately 50 kg/ha.

The next assay has as its system Botrytis cinerea. Kind of assay: In vivo fungicidal evaluation, Pepper Botrytis. Further: ranges in brackets are in %. The note with it: 200 ppm, host plants sprayed, dried, then inoculated.
In another assay the test system is Pyricularia oryzae. The assay is classed as in vivo. The note with it: 200 ppm, host plants sprayed, dried, then inoculated.
For a further assay, the system named is Venturia inaequalis. Nature of the assay: In vivo fungicidal evaluation, Apple Scab. Further: ranges in brackets are in %. The note with it: 200 ppm, host plants sprayed, dried, then inoculated.
Assay [2] has as its system Puccinia recondita f. sp. tritici. Kind of assay: In vivo fungicidal evaluation, Wheat Leaf Rust. Further: ranges in brackets are in %. The following applies: 200 ppm, host plants sprayed, dried, then inoculated.
The next assay deals with Alternaria solani. Nature of the assay: In vivo fungicidal evaluation, Tomato Early Blight. Further: ranges in brackets are in %. The following applies: 200 ppm, host plants sprayed, dried, then inoculated.
A further assay relates to Cercospora beticola. Nature of the assay: In vivo fungicidal evaluation, Sugar Beet Cercospora. Further: ranges in brackets are in %. The note with it: 200 ppm, host plants sprayed, dried, then inoculated.
A further assay has as its system Plasmopara viticola. Kind of assay: In vivo fungicidal evaluation, Grape Downy Mildew. Further: ranges in brackets are in %. The note with it: 200 ppm, host plants sprayed, dried, then inoculated.
For assay [3], the system named is Erysiphe graminis f. sp. tritici. Nature of the assay: In vivo fungicidal evaluation, Wheat Powdery Mildew. Further: ranges in brackets are in %. The following applies: 200 ppm, host plants sprayed, dried, then inoculated.
Assay [4] has as its system Rhizoctonia solani (Rhizso). Kind of assay: In vitro fungicidal evaluation, mycelial growth inhibition in nutrient broth. Further: ranges in brackets are in %. In kind it is cell-based. The note with it: 25 ppm, 3-4 days at 21°C, rated visually. The method, then: (§2) Test compounds are dissolved or suspended in acetone and dispersed into cell well plates containing a suspension of ground fungal mycelia in a nutrient broth. Assay plates are incubated for 3-4 days at 21°C. Growth inhibition is measured visually and is rated using the following scale:
(§3) Untreated controls, solvent blanks and reference standards are included in each test.
(§4) Assay fungi include the plant pathogens, Pythium ultimum (Pythul); Rhizoctonia solani (Rhizso); Fusarium oxysporum f. sp. cucumerinum (Fusoxc); and Pseudocercosporella herpotrichoides (Psdche).
(§5) When more than one test is run, the data are averaged. The compouds evaluated are reported by compound number given in Example 5.

For a further assay, the system named is Pythium ultimum (Pythul). The assay is described as above. The assay is classed as cell-based. The note with it: 25 ppm, 3-4 days at 21°C, rated visually. As for the experimental part: as §2, §3, §4, §5; further: ranges in brackets are in %
Assay [5] has as its system Fusarium oxysporum f. sp. cucumerinum (Fusoxc). The assay is described as above. In kind it is cell-based. The note with it: 25 ppm, 3-4 days at 21°C, rated visually. As for the experimental part: as §2, §3, §4, §5; further: ranges in brackets are in %
Assay [6] concerns Pseudocercosporella herpotrichoides (Psdche). Described as above. The following applies: 25 ppm, 3-4 days at 21°C, rated visually. The assay is classed as cell-based. The method, then:
as §2, §3, §4, §5

For assay [7], the system named is Tetranychus urticae (OP-resistant strain), 2-spotted spider mite. Kind of assay: Acaricide evaluation, 2-spotted spider mite plant dip. In kind it is in vivo. The following applies: 300 ppm, 2 days, adult kill. The method, then:
as §1
Sieva lima bean plants with primary leaves expaned to 7 to 8 cm are selected and cut back to one plant per pot. A small piece is cut from a leaf taken from the main colony and placed on each leaf of the test plants. This is done about 2 hours before treatment to allow the mites to move over to the test plant and to lay eggs. The size of the cut piece is varied to obtain about 100 mites per leaf. At the time of the treatment, the piece of leaf used to transfer the mites is removed and discarded. The mite-infested plants are dipped in the test formulation for 3 seconds with agitation and set in the hood to dry. Plants are kept for 2 days before estimates of adult kill are made.

Assay [8] has as its system Spodoptera eridania 3rd instar larvae, southern army-worm. Nature of the assay: Insecticide evaluation, southern armyworm leaf dip. The assay is classed as in vivo. The note with it: 300 ppm, 5 days. As for the experimental part:
as §1
A sieva lima bean leaf expanded to 7 to 8 cm in length is dipped in the test suspension with agitation for 3 seconds and placed in a hood to dry. The leaf is then placed in a 100x10 mm petri dish containing a damp filter paper on the bottom and 10 3rd instar caterpillars. The dish is maintained for 5 days before observations are made of mortality, reduced feeding or any interference with normal moulting.

Assay [9] relates to Heliothis virenscens, 3rd instar tobacco budworm. Nature of the assay: Insecticide evaluation, tobacco budworm cotton cotyledon dip. In kind it is in vivo. The following applies: 300 ppm, 3 days. As for the experimental part:
as §1
Cotton cotyledons are dipped in the test formulation and allowed to dry in a hood. When dry, each is cut into quarters and ten sections placed individually in 30 mL plastic medicine cups containing a 5 to 7 mm long piece of damp dental wick. One 3rd instar caterpillar is added to each cup and a cardboard lid placed on the cup. Treatments are maintained for 3 days before mortality counts and estimates of reduction in feeding damage are made.
Wherever PSDCHE growth inhibition rating is given: ranges in brackets are in %.

For the substance “(Isoquinolinio)methyldiphenylboron [Compound 6]”, the “Southern Corn Rootworm kill rating” value in [1] is 9 (9 = 100% kill). For the same substance, the “PB (Pepper Botrytis) disease control rating” value in the assay with Botrytis cinerea was 0 (0). Moreover, in the assay on Pyricularia oryzae, the “RB (Rice Blast) disease control rating” value was 6 (75 - 89). The “AS (Apple Scab) disease control rating” value in the assay with Venturia inaequalis is on record as 9 (100). The “WLR (Wheat Leaf Rust) disease control rating” value in assay [2] was 9 (100). Also, the “TEB (Tomato Early Blight) disease control rating” value in the assay on Alternaria solani was 0 (0). Moreover, in the assay on Cercospora beticola, the “SBC (Sugar Beet Cercospora) disease control rating” value is listed as 0 (0). In addition, the “GDM (Grape Downy Mildew) disease control rating” value with Plasmopara viticola is 9 (100). Also, in assay [3], the “WPM (Wheat Powdery Mildew) disease control rating” value is 8 (96 - 99). Further, the “RHIZSO growth inhibition rating” value in [4] was 7 (90 - 99). Moreover, in the assay with Pythium ultimum (Pythul), the “PHTHUL growth inhibition rating” value is given as 9 (100). Moreover, in [5], the “FUSOXC growth inhibition rating” value is on record as 9 (100). In [6], the “PSDCHE growth inhibition rating” value is reported as 9 (100). In addition, the “OP. Res. Mites kill rating” value in [7] was 8 (8 = 86-99% kill). Also, in assay [8], the “Southern Armyworm kill rating” value is recorded as 9 (9 = 100% kill). The “Tobacco Budworm Larvae kill rating” value in assay [9] is 8 (8 = 86-99% kill).
On to “(4-Isopropylpyridinio)methyldiphenylboron [Compound 1]”, for which the “Southern Corn Rootworm kill rating” value in assay [1] came to 0. Besides, the “PB (Pepper Botrytis) disease control rating” value with Botrytis cinerea is 7 (90 - 95). For the same substance, the “RB (Rice Blast) disease control rating” value with Pyricularia oryzae was 7 (90 - 95). For the same substance, in the assay on Venturia inaequalis, the “AS (Apple Scab) disease control rating” value was 9 (100). The “WLR (Wheat Leaf Rust) disease control rating” value in [2] was 8 (96 - 99). In addition, the “TEB (Tomato Early Blight) disease control rating” value with Alternaria solani is 7 (90 - 95). Also, the “SBC (Sugar Beet Cercospora) disease control rating” value in the assay on Cercospora beticola is given as 0 (0). The “GDM (Grape Downy Mildew) disease control rating” value in the assay on Plasmopara viticola is recorded as 9 (100). In addition, the “WPM (Wheat Powdery Mildew) disease control rating” value in [3] is 8 (96 - 99). For the same substance, the “RHIZSO growth inhibition rating” value in [4] is recorded as 9 (100). Moreover, in the assay on Pythium ultimum (Pythul), the “PHTHUL growth inhibition rating” value is 7 (90 - 99). The “FUSOXC growth inhibition rating” value in [5] is 9 (100). For the same substance, in [6], the “PSDCHE growth inhibition rating” value is recorded as 9 (100). In addition, the “OP. Res. Mites kill rating” value in assay [7] is 8 (8 = 86-99% kill). In addition, in assay [8], the “Southern Armyworm kill rating” value is listed as 8 (8 = 86-99% kill). Further, in [9], the “Tobacco Budworm Larvae kill rating” value is 8 (8 = 86-99% kill).
